Literature values as cited in US6670392B2, “Compositions and methods for the prevention and treatment of human prostate cancer” (Bioadvantex Pharma Inc., priority 2001, dated 2003).

Settings: synthetic dl-α-tocopherol as standard; cited from earlier work

Cc1c(C)c2c(c(C)c1O)CC[C@@](C)(CCC[C@H](C)CCC[C@H](C)CCCC(C)C)O2 [d-α-tocopherol]
bioactivity relative to synthetic dl-α-tocopherol: 1.49 times
